Reference: patent publication US11096923B2, “Pharmaceutical composition containing polymyxin B/trimethoprim based therapeutics” (University of Rochester, priority 2016, dated 2021)
Read-outs that look alike come from different tables or passages of the source.

Experiments:
[1] = test system: P. aeruginosa biofilm; design: key: Killing (+) of established biofilms; conditions: established biofilms; adenylate kinase reporter; Blanchard et al., 2016; cited from earlier work
[2] = test system: S. aureus UAMS-1; assay: Selleck library screen in presence of sub-inhibitory polymyxin B/trimethoprim; assay type: cell-based, Staphylococcus aureus; design: key: Growth (+); no growth (−); conditions: for S. aureus growth, 5 μM: drug 5 μM in presence of 1.2 μg ml^−1 polymyxin B/trimethoprim; for S. aureus growth, 50 μM: drug 50 μM in presence of 1.2 μg ml^−1 polymyxin B/trimethoprim
Description: (§1) To identify agents that potentiate the antimicrobial activity of polymyxin B/trimethoprim we first determined the highest concentration of the polymyxin B/trimethoprim combination that allowed growth of P. aeruginosa strain PAO1 and S. aureus strain UAMS-1.
(§2) For Selleck library screening, individual wells of 96-well microtiter plates containing 88 μl of fresh media were inoculated with approximately 10^5 CFUs of P. aeruginosa strain PAO1 or S. aureus UAMS-1. Next, 2 μl of polymyxin B/trimethoprim was added to a final concentration of 0.2 μg ml^−1 or 1.25 μg ml^−1 for PA01 and UAMS-1, respectively. Library members were then added at either 5 μM or 50 μM final concentration. Plates were incubated at 37° C. for 16 hours and hits were identified as wells with no visible growth.
To do so, 10^5 CFUs of S. aureus strain UAMS-1 were inoculated in individual wells of a microtiter plate supplemented with 1.2 μg ml^−1 of polymyxin B/trimethoprim, (0.25×MIC). Library members were added at low (5 μM) or high (50 μM) concentrations and then scored for agents that inhibited growth following overnight incubation. Such agents were expected to represent compounds that display antimicrobial activity on their own and/or that potentiate the antimicrobial activity of polymyxin B/trimethoprim.

[3] = test system: P. aeruginosa PAO1; assay: as above; assay type: cell-based, Pseudomonas aeruginosa; design: key: Growth (+); no growth (−); conditions: for P. aeruginosa growth, 5 μM: drug 5 μM in presence of 0.2 μg ml^−1 polymyxin B/trimethoprim; for P. aeruginosa growth, 50 μM: drug 50 μM in presence of 0.2 μg ml^−1 polymyxin B/trimethoprim
Description: as §1
as §2, with “growth. […]” for “growth.”

[4] = test system: P. aeruginosa; assay: MIC of clinical P. aeruginosa ocular isolates (antibiotic susceptibility profiles); assay type: cell-based, Pseudomonas aeruginosa; conditions: for MIC: Pseudomonas aeruginosa, read-out: Minimum Inhibitory Concentration
Excerpt: A series of genotyping and biological assays were used as a preliminary means to evaluate the clonality of clinical P. aeruginosa isolates collected, as follows. Genomic DNA was purified from each isolate using Qiagen DNeasy kits (Hilden, Germany) and used as a template for polymerase chain reactions to detect the presence of the virulence factors exoS, exoY, exoU, exoT, and perV using previously published primers (Table 1). See Allewelt M, Coleman F T, Grout M, Priebe G P, Pier G B. Acquisition of expression of the Pseudomonas aeruginosa ExoU cytotoxin leads to increased bacterial virulence in a murine model of acute pneumonia and systemic spread. Infection and immunity 2000; 68:3998-4004, Lomholt J A, Poulsen K, Kilian M. Epidemic population structure of Pseudomonas aeruginosa: evidence for a clone that is pathogenic to the eye and that has a distinct combination of virulence factors. Infection and immunity 2001; 69, and Ledbetter E C, Mun J J, Kowbel D, Fleiszig S M. Pathogenic phenotype and genotype of Pseudomonas aeruginosa isolates from spontaneous canine ocular infections. Investigative ophthalmology & visual science 2009; 50. […] See Institute C. Performance Standards for Antimicrobial Susceptibility Testing: Twenty-fifth Informational Supplement. Each isolate's ability to form biofilms was quantified. To do so, wells of a polystyrene plate containing 72-hour established biofilms were washed with 0.8% NaCl to remove non adherent cells and stained with crystal violet. To quantify biofilm staining, plates were washed 3 times with H2O, stain was suspended in 30% glacial acetic acid and the optical density (OD600nm) of each well was determined using an automated plate reader, as previously described. See Jacobs A C, Blanchard C E, Catherman S C, Dunman P M, Murata Y. An ribonuclease T2 family protein modulates Acinetobacter baumannii abiotic surface colonization. PloS one 2014; 9.

[5] = P. aeruginosa ocular isolate RW01 (cornea)
[6] = P. aeruginosa ocular isolate RW02 (cornea)
[7] = P. aeruginosa ocular isolate RW03 (cornea)
[8] = P. aeruginosa ocular isolate RW04 (conjunctiva)
[9] = P. aeruginosa ocular isolate RW05 (cornea)
[10] = P. aeruginosa ocular isolate RW06 (cornea)
[11] = P. aeruginosa ocular isolate RW07 (cornea)

Molecule	P. aeruginosa biofilm AK Signal [1]	S. aureus growth, 5 μM [2]	S. aureus growth, 50 μM [2]	P. aeruginosa growth, 5 μM [3]	P. aeruginosa growth, 50 μM [3]	also measured
CCN1CCN(c2cc3c(cc2F)c(=O)c(C(=O)O)cn3C2CC2)CC1 [Enrofloxacin, enrofloxacin]	+	−	−	−	−	
CO/N=C(\C(=O)N[C@@H]1C(=O)N2C(C(=O)O)=C(CSc3nc(=O)c(=O)[nH]n3C)CS[C@H]12)c1csc(N)n1 [Ceftriaxone, ceftriaxone]						MIC [4, 5]: 13 µg/mL; MIC [4, 6]: 26 µg/mL; MIC [4, 7]: 26 µg/mL; MIC [4, 8]: 26 µg/mL; MIC [4, 9]: 13 µg/mL; MIC [4, 10]: 52 µg/mL; MIC [4, 11]: 26 µg/mL
gentamycin						Minimum Inhibitory Concentration [4, 5]: 0.24 µg/mL; Minimum Inhibitory Concentration [4, 6]: 0.24 µg/mL; Minimum Inhibitory Concentration [4, 7]: 0.12 µg/mL; Minimum Inhibitory Concentration [4, 8]: 0.48 µg/mL; Minimum Inhibitory Concentration [4, 9]: 0.48 µg/mL; Minimum Inhibitory Concentration [4, 10]: 0.48 µg/mL; Minimum Inhibitory Concentration [4, 11]: 0.24 µg/mL
CCn1cc(C(=O)O)c(=O)c2cc(F)c(N3CCNC(C)C3)c(F)c21 (stereo not drawn) [Lomefloxacin, lomefloxacin]	+	−	−	−	−	
CC1(C)S[C@@H]2[C@H](NC(=O)[C@H](N)c3ccccc3)C(=O)N2[C@H]1C(=O)O [Ampicillin, ampicillin]						MIC [4, 5]: 50 µg/mL; MIC [4, 6]: 50 µg/mL; MIC [4, 7]: 50 µg/mL; MIC [4, 8]: 50 µg/mL; MIC [4, 9]: 100 µg/mL; MIC [4, 10]: 100 µg/mL; MIC [4, 11]: 50 µg/mL
O=C(O)c1cn(-c2ccc(F)cc2)c2cc(N3CCNCC3)c(F)cc2c1=O [Sarafloxacin, sarafloxacin]	+	−	−	−	−	
CO[C@H]1/C=C/O[C@@]2(C)Oc3c(C)c(O)c4c(O)c(c5c(nc6cc(C)ccn65)c4c3C2=O)NC(=O)/C(C)=C\C=C\[C@H](C)[C@H](O)[C@@H](C)[C@@H](O)[C@@H](C)[C@H](OC(C)=O)[C@@H]1C [Rifaximin, rifaximin]	+	−	−	−	−	
CC1CCc2c(N3CCC(O)CC3)c(F)cc3c(=O)c(C(=O)O)cn1c23 (stereo not drawn) [Nadifloxacin, nadifloxacin]	+	−	−	−	−	
N[C@@H]1CN(c2c(F)cc3c(=O)c(C(=O)O)cn([C@@H]4C[C@@H]4F)c3c2Cl)CC12CC2 [Sitafloxacin, sitafloxacin]	+	−	−	−	−	
CCn1cc(C(=O)O)c(=O)c2cc(F)c(N3CCN(C)CC3)cc21 [Pefloxacin, pefloxacin]	+	−	−	−	−	
NC1CCN(c2c(F)cc3c(=O)c(C(=O)O)cn(C4CC4)c3c2Cl)C1 (stereo not drawn) [Clinafloxacin, clinafloxacin]	+	−	−	−	−	
C[C@H]1COc2c(N3CCN(C)CC3)c(F)cc3c(=O)c(C(=O)O)cn1c23 [Levofloxacin, levofloxacin]		+	−	−	−	
neomycin						Minimum Inhibitory Concentration [4, 5]: 9.8 µg/mL; Minimum Inhibitory Concentration [4, 6]: 9.8 µg/mL; Minimum Inhibitory Concentration [4, 7]: 9.8 µg/mL; Minimum Inhibitory Concentration [4, 8]: 19.6 µg/mL; Minimum Inhibitory Concentration [4, 9]: 1 µg/mL; Minimum Inhibitory Concentration [4, 10]: 9.8 µg/mL; Minimum Inhibitory Concentration [4, 11]: 1 µg/mL
